Source: ChEMBL document CHEMBL1138903, “Secondary amides of sulfonylated 3-amidinophenylalanine. New potent and selective inhibitors of matriptase” (J Med Chem, 2006)

Key:
Plasminogen = Plasminogen (Homo sapiens, UniProt P00747); assay: Inhibition of plasmin
[1] = molecular target: T1, Suppressor of tumorigenicity 14 protein (Homo sapiens, UniProt Q9Y5Y6)
T1 sequence (Q9Y5Y6 whole entry): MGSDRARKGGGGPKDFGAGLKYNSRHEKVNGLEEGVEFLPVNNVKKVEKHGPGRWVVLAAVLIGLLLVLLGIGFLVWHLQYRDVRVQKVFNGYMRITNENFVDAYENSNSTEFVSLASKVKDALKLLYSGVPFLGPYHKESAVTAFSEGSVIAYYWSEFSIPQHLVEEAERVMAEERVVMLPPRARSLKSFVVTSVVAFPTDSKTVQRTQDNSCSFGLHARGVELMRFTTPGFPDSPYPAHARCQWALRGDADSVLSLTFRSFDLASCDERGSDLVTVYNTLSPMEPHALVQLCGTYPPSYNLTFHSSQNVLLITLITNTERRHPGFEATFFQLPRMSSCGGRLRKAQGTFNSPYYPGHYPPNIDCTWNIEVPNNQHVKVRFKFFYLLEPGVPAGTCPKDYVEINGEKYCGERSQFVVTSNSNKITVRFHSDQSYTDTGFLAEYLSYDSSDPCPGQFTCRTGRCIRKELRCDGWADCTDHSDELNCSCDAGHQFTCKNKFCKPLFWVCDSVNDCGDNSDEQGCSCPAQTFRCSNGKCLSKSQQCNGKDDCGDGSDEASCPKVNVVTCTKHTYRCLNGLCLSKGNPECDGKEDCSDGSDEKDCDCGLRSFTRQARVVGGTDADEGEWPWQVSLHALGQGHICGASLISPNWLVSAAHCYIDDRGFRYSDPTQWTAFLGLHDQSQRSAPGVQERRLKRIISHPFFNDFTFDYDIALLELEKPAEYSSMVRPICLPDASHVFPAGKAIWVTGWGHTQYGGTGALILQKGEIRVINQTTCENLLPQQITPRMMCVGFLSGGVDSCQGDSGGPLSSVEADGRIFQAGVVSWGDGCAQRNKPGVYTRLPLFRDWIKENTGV

Coagulation factor X = Coagulation factor X (Homo sapiens, UniProt P00742); assay: Inhibition of f10a
Sequence of Coagulation factor X (P00742 41-179 limits assumed): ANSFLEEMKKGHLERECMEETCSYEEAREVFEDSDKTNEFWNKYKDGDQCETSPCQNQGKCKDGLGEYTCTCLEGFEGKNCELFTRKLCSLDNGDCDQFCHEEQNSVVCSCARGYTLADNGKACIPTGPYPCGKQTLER
Sequence of Coagulation factor X (P00742 235-488 limits assumed): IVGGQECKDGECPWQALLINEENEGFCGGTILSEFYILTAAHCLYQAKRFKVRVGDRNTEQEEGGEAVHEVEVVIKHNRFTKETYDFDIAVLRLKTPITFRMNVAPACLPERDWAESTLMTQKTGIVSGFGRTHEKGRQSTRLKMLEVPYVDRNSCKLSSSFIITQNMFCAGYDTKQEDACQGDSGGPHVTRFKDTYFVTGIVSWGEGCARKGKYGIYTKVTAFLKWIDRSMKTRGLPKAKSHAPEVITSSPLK

[2] = molecular target: Urokinase-type plasminogen activator (Homo sapiens, UniProt P00749); assay: Inhibition of uPA
Prothrombin = Prothrombin (Homo sapiens, UniProt P00734); assay: Inhibition of thrombin

Sequence of Plasminogen (P00747 97-580 limits assumed): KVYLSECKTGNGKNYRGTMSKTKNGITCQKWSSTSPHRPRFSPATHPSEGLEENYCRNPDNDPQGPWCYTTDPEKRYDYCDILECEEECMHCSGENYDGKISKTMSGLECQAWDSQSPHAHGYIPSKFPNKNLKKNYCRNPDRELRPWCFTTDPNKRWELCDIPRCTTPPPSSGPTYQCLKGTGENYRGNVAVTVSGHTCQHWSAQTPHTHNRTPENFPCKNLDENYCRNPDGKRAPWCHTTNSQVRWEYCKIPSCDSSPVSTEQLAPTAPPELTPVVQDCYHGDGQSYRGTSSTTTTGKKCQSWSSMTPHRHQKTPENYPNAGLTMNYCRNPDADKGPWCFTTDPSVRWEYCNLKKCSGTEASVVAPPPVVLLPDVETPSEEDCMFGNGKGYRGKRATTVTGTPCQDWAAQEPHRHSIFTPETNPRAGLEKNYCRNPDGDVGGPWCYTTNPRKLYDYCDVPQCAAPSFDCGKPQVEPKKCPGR
Sequence of Plasminogen (P00747 581-810 limits assumed): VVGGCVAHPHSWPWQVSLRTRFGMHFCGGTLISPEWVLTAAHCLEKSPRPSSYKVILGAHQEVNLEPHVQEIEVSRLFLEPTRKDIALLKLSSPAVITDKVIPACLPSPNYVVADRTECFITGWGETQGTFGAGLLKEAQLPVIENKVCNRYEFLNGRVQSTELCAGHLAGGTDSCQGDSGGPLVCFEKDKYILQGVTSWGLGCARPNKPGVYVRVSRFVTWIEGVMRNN

Ki (Plasminogen) | Ki [1] | Ki (Coagulation factor X) | Ki [2] | Ki (Prothrombin) | Compound
1.8 µM | – | 3.7 µM | 1.6 µM | 13 µM | CC(C)c1cc(C(C)C)c(S(=O)(=O)N[C@@H](Cc2cccc(C(=N)N)c2)C(=O)N2CCN(C(=N)N)CC2)c(C(C)C)c1
– | – | 1.7 µM | – | – | CCOC(=O)N1CCN(C(=O)[C@H](Cc2cccc(C(=N)N)c2)NS(=O)(=O)c2c(C(C)C)cc(C(C)C)cc2C(C)C)CC1
0.64 µM | 0.14 µM | 13 µM | 1.1 µM | 9.4 µM | CC(C)c1cc(C(C)C)c(S(=O)(=O)N[C@@H](Cc2cccc(C(=N)N)c2)C(=O)N2CCN(C(=O)CCCN)CC2)c(C(C)C)c1
1.8 µM | 0.14 µM | 5 µM | 0.62 µM | 20 µM | CC(C)c1cc(C(C)C)c(S(=O)(=O)N[C@@H](Cc2cccc(C(=N)N)c2)C(=O)N2CCC(C(=O)NCCN=C(N)N)CC2)c(C(C)C)c1
1 µM | 0.089 µM | 3.2 µM | 0.32 µM | 0.3 µM | CC(C)c1cc(C(C)C)c(S(=O)(=O)N[C@@H](Cc2cccc(C(=N)N)c2)C(=O)N2CCC(CCN=C(N)N)CC2)c(C(C)C)c1
0.33 µM | 0.05 µM | 4.1 µM | 4.6 µM | 2.5 µM | CC(C)c1cc(C(C)C)c(S(=O)(=O)N[C@@H](Cc2cccc(C(=N)N)c2)C(=O)N2CCCN(C(=O)C3CCN(C(=N)N)CC3)CC2)c(C(C)C)c1
– | 0.082 µM | – | – | – | CC(C)c1cc(C(C)C)c(S(=O)(=O)NC(Cc2cccc(C(=N)N)c2)C(=O)N2CCN(C(=O)CCN=C(N)N)CC2)c(C(C)C)c1 (configuration not stated)
0.8 µM | 0.1 µM | 4.6 µM | 0.87 µM | 1.3 µM | CC(C)c1cc(C(C)C)c(S(=O)(=O)N[C@@H](Cc2cccc(C(=N)N)c2)C(=O)N2CCNCC2)c(C(C)C)c1
0.82 µM | 0.33 µM | 9 µM | 1.5 µM | 1.2 µM | CC(C)c1cc(C(C)C)c(S(=O)(=O)NC(Cc2cccc(C(=N)N)c2)C(=O)N2CCN(C(=O)CN=C(N)N)CC2)c(C(C)C)c1 (racemic)
0.78 µM | 0.089 µM | 2.3 µM | 10.5 µM | 0.12 µM | N=C(N)NCCC(=O)N1CCN(C(=O)[C@H](Cc2cccc(C(=N)N)c2)NS(=O)(=O)c2ccc(C3CCCCC3)cc2)CC1
0.88 µM | 0.061 µM | 2.8 µM | 0.26 µM | 4.2 µM | CC(C)c1cc(C(C)C)c(S(=O)(=O)N[C@@H](Cc2cccc(C(=N)N)c2)C(=O)N2CCN(C(=O)CCCN=C(N)N)CC2)c(C(C)C)c1
0.6 µM | – | 10 µM | 1.1 µM | 5 µM | CC(C)c1cc(C(C)C)c(S(=O)(=O)N[C@@H](Cc2cccc(C(=N)N)c2)C(=O)N2CCN(C(=O)C3CCN(C(=N)N)CC3)CC2)c(C(C)C)c1
3.4 µM | 0.69 µM | 10.5 µM | 8.9 µM | 0.2 µM | CC(C)c1cc(C(C)C)c(S(=O)(=O)NC(Cc2cccc(C(=N)N)c2)C(=O)N2CCN(C(=O)CN)CC2)c(C(C)C)c1 (racemic)

The remaining lines, values behind:

Compound | Ki (Plasminogen) | Ki [1] | Ki (Coagulation factor X) | Ki [2] | Ki (Prothrombin)
Cc1c(C)c(S(=O)(=O)N[C@@H](Cc2cccc(C(=N)N)c2)C(=O)N2CCN(C(=O)CCN=C(N)N)CC2)c(C)c2c1OC(C)(C)C2 | 10.2 µM | 0.73 µM | > 1000 µM | 25 µM | 3 µM
N=C(N)NCCC1CCN(C(=O)[C@H](Cc2cccc(C(=N)N)c2)NS(=O)(=O)c2ccc(Oc3ccccc3)cc2)CC1 | 0.76 µM | 0.038 µM | 1 µM | 2.3 µM | 0.21 µM
N=C(N)c1cccc(C[C@H](NS(=O)(=O)c2ccc3ccccc3c2)C(=O)N2CCC(C3CCN(C(=N)N)CC3)CC2)c1 | 1.4 µM | – | 25 µM | 1.3 µM | 1.8 µM
CC(C)c1cc(C(C)C)c(S(=O)(=O)N[C@@H](Cc2cccc(C(=N)N)c2)C(=O)N2CCCN(C(=O)CCN)CC2)c(C(C)C)c1 | 0.36 µM | – | 5.3 µM | 1.2 µM | 0.49 µM
N=C(N)c1cccc(C[C@H](NS(=O)(=O)c2cccc(NC(=O)CCN)c2)C(=O)N2CCC(CCN=C(N)N)CC2)c1 | 5 µM | 0.0018 µM | 9.5 µM | 1.7 µM | 6 µM
N=C(N)c1cccc(C[C@H](NS(=O)(=O)c2cccc(NC(=O)CCN)c2)C(=O)N2CCC(CCCN)CC2)c1 | 2.7 µM | 0.005 µM | 15 µM | 1.5 µM | 13 µM
N=C(N)NCCNC(=O)C1CCN(C(=O)[C@H](Cc2cccc(C(=N)N)c2)NS(=O)(=O)c2ccc3c(c2)C(=O)c2ccccc2C3=O)CC1 | 4.1 µM | 0.013 µM | 4.9 µM | 3.6 µM | 0.42 µM
N=C(N)NCCC(=O)N1CCN(C(=O)[C@H](Cc2cccc(C(=N)N)c2)NS(=O)(=O)c2ccc3cc4ccccc4cc3c2)CC1 | 3.2 µM | – | 4.6 µM | 6.1 µM | 0.46 µM
N=C(N)c1cccc(C[C@H](NS(=O)(=O)c2ccc3ccccc3c2)C(=O)N2CCC(C3CCNCC3)CC2)c1 | 0.21 µM | – | 24 µM | 2.2 µM | 12 µM
N=C(N)c1cccc(C[C@H](NS(=O)(=O)c2ccc3ccccc3c2)C(=O)N2CCC(CCN)CC2)c1 | 1.4 µM | – | 76 µM | 2.3 µM | 0.21 µM
N=C(N)NCCC(=O)N1CCN(C(=O)[C@H](Cc2cccc(C(=N)N)c2)NS(=O)(=O)c2ccc3ccccc3c2)CC1 | 2.8 µM | 0.21 µM | 56 µM | 6.9 µM | 1.4 µM
CC(C)c1cc(C(C)C)c(S(=O)(=O)N[C@@H](Cc2cccc(C(=N)N)c2)C(=O)N2CCN(C(=O)CCN)CC2)c(C(C)C)c1 | 0.44 µM | – | 15 µM | – | 3.3 µM
N=C(N)c1cccc(C[C@H](NS(=O)(=O)c2ccc(C3CCCCC3)cc2)C(=O)N2CCNCC2)c1 | 2.8 µM | – | 1.1 µM | 6.6 µM | 0.17 µM
CCC(C)(C)c1ccc(S(=O)(=O)N[C@@H](Cc2cccc(C(=N)N)c2)C(=O)N2CCN(C(=O)CCN=C(N)N)CC2)cc1 | 2.5 µM | 0.2 µM | 8.3 µM | 18 µM | 0.26 µM
N=C(N)c1cccc(C[C@H](NS(=O)(=O)c2cccc3ccccc23)C(=O)N2CCC(CCN=C(N)N)CC2)c1 | 1.7 µM | 0.072 µM | 13 µM | 2.3 µM | 0.19 µM
N=C(N)NCCC(=O)N1CCN(C(=O)[C@H](Cc2cccc(C(=N)N)c2)NS(=O)(=O)c2cccc3ccccc23)CC1 | 3.7 µM | 0.34 µM | 5.1 µM | 19 µM | 2.5 µM
N=C(N)NCCC(=O)N1CCN(C(=O)[C@H](Cc2cccc(C(=N)N)c2)NS(=O)(=O)c2ccc3c(c2)C(=O)c2ccccc2C3=O)CC1 | 7.2 µM | 0.053 µM | 2.8 µM | 26 µM | 1.8 µM
CC(C)c1cc(C(C)C)c(S(=O)(=O)N[C@@H](Cc2cccc(C(=N)N)c2)C(=O)N2CCN(C(=O)C3CCNCC3)CC2)c(C(C)C)c1 | 1.3 µM | – | 17 µM | 1.2 µM | 5.4 µM
Cc1ccc(S(=O)(=O)NC(Cc2cccc(C(=N)N)c2)C(=O)N2CCCCC2)cc1 (configuration not stated) | – | 14 µM | – | – | –
N=C(N)NCCC(=O)Nc1ccc(S(=O)(=O)N[C@@H](Cc2cccc(C(=N)N)c2)C(=O)N2CCC(CCNC(=N)N)CC2)cc1 | 1.2 µM | 0.0087 µM | 10 µM | 0.6 µM | 1.8 µM
N=C(N)c1cccc(C[C@H](NS(=O)(=O)c2ccc(-c3ccccc3)cc2)C(=O)N2CCN(C(=O)C3CCN(C(=N)N)CC3)CC2)c1 | 1.4 µM | – | 2.8 µM | 12 µM | 1.3 µM
CC(C)c1cc(C(C)C)c(S(=O)(=O)N[C@@H](Cc2cccc(C(=N)N)c2)C(=O)N2CCCN(C(=O)C3CCNCC3)CC2)c(C(C)C)c1 | 0.26 µM | – | 5.8 µM | 2.5 µM | 5 µM
N=C(N)c1cccc(C[C@H](NS(=O)(=O)c2cccc(NC(=O)CCCN)c2)C(=O)N2CCC(CCN)CC2)c1 | 2.5 µM | – | 23 µM | 8 µM | 21 µM
N=C(N)c1cccc(C[C@H](NS(=O)(=O)c2cccc(NC(=O)CN)c2)C(=O)N2CCC(CCN)CC2)c1 | 4.5 µM | – | 35 µM | 11 µM | 7 µM
CCC(=O)N1CCN(C(=O)[C@H](Cc2cccc(C(=N)N)c2)NS(=O)(=O)c2ccc3c(c2)C(=O)c2ccccc2C3=O)CC1 | 6 µM | – | 1.3 µM | 31 µM | 0.054 µM
